From patent US9403916B2, “Polysaccharide-and polypeptide-based block copolymers, vesicles constituted by these copolymers and use thereof” (priority 2008, dated 2016) come the findings set out here.

The subject of one experiment is cells of rat glioma C6. Put plainly: Cellular viability (toxicity) MTT test. The settings on record: 48 h, read-out: IC50 (concentration for which half of the cells remain viable). The class given is cell-based. On the procedure: Experiments of toxicity and release in vitro were performed using vesicles based on hyaluronic acid-block-poly(γ-benzyl L-glutamate) diblock copolymer prepared in Example 6, containing 11% of doxorubicin. The in-vitro experiments were performed on cells of rat glioma C6, in Dulbecco's modified Eagle's medium (DMEM) containing 5% of foetal calf serum. The C6 cells (5×10^5 cells) are placed in bottles of 10 cm diameter and are grown in 10 ml of culture medium containing penicillin (10000 μg/mL), streptomycin (10000 μg/mL) and amphotericin B (25 μg/mL) [Invitrogen Corporation] in an incubator at 37° C. in a controlled atmosphere with 5% CO2. For the tests of cellular viability (or toxicity), C6 cells were incubated in a 24-well plate (15×10^4 cells per well), for 24 h. Viability was determined by a conventional test with tetrazolium salt MTT (3-(4,5-dimethylthiazol-2-yl)-2,5-diphenyl tetrazolium bromide). The tetrazolium that it contains is reduced to formazan by the mitochondrial succinate dehydrogenase of the active living cells. The colour of the medium then changes from yellow to purplish-blue. The intensity of this coloration is proportional to the number of living cells present during the test. Analysis is performed by spectrophotometry (U-2800A, HITACHI), measuring the absorbance at 570 nm. […]
(Tetrazolium dyes change colour on reduction, which living cells bring about.)

The test system of experiment [1] is DMBA-induced tumour in female Sprague-Dawley rats. Nature of the experiment: Antitumour efficacy in DMBA-induced tumour, tumour regression and survival. The experiment is classed as in vivo. The settings on record: rat, single intravenous dose 5 mg/kg doxorubicin. On the procedure: Female Sprague-Dawley rats aged 8 weeks (120-140 g) were used in a study of tumour regression.
7,12-dimethylbenz[α]anthracene (DMBA) was administered orally (in soya oil) to the animals in 3 doses of 45 mg/kg at one-week intervals, to generate the tumour.
The treatment with doxorubicin was given 10 weeks after the last dose of DMBA. The width of the tumour (w) and its length (l) were recorded with callipers and the size of the tumour was calculated from the formula (w×l^2/2).
After 10 weeks from tumour induction, the animals with tumours were separated and divided randomly into different treatment groups, then treated with a single dose of 250 μl of doxorubicin by intravenous route at 5 mg/kg, either in the form of free doxorubicin, or in the form of doxorubicin encapsulated in the micellar vesicles of Example 6.
The control group received a single dose of 250 μl of PBS buffer (pH 7.4) by the intravenous route.
The study was terminated […] after treatment.
Observation of the survival of the animals with a tumour, which were treated, was continued until 60 days after treatment.

Regarding `COc1cccc2c1C(=O)c1c(O)c3c(c(O)c1C2=O)C[C@@](O)(C(=O)CO)C[C@@H]3O[C@H]1C[C@H](N)[C@H](O)[C@H](C)O1` [free doxorubicin, doxorubicin], the IC50 with cells of rat glioma C6 came to 0.84 µM. For the same compound, in experiment [1], the “tumour growth in comparison with control group treated with PBS” value is listed as “significantly inhibit tumour growth” and the “tumour regression after 15 days of treatment” value is “regression reaches a plateau”.
